{"source": "patent US6407081B1", "about": "“Method for inhibiting cytokine production by cells” (Previsan AG, priority 1997, dated 2002)", "key": {"[1]": {"system": "IL-2", "experiment": "In vivo serum IL-2 release after anti-CD3 145-2C11 mAb (Example 5)", "parameters": "species or system BALB/C mice", "settings": "ADA 100 mg/kg single injection one day before 145-2C11 mAb; sera at 2, 4, 8, 24 h; FIG. 1", "protocol": "A single intraparenteral injection of azodicarbon-amide (ADA) at a dose of 100 mg/kg bodyweight or corresponding carrier is made into BALB/C mice (Harlan, Zeist, Netherlands) one day before intraparenteral inoculation of 25 μg of hamster 145-2C11 mAb, an anti-mouse CD3 mAb which brings about massive in vivo activation of polyclonal T cells, resulting in systemic cytokine release. Sera are collected 2, 4, 8 and 24 hours after the anti-CD3 treatment and the cytokine (IL-2, IL-4) levels are determined by an ELISA test (Genzyme).\nFIGS. 1 and 2 are graphs showing, on the y-axis, the quantities of IL-2 and IL-4 in the serum as a mean of 5 test animals. […] The empty bars show the results obtained with the carrier and the shaded bars show those obtained with prior ADA treatment."}, "[2]": {"system": "skin allograft", "experiment": "Skin allograft rejection (Example 6)", "format": "in vivo, C57BL/6 mice", "settings": "ADA 50 mg/kg daily injection vs carrier control; FIG. 3", "protocol": "Skin grafts, which are well known to be highly dependent upon T cells, are prepared from the tails of four female C57BL/6. CH-2^bm12 mice (Jackson Laboratory, Bar Harbor, Me., USA). These grafts are grafted onto the sides of C57BL/6 mice (Harlan, Zeist, Netherlands). A dressing is applied around the hole. This dressing is removed 10 days later and the grafts are inspected daily. The test mice receive a daily intraparenteral injection of 50 mg/kg bodyweight of ADA and the controls receive an equivalent quantity of the corresponding carrier until acute rejection is observed.\nOn the graph in FIG. 3, survival of the skin graft is plotted, in %, on the y-axis, while the number of days since the transplant is plotted on the x-axis."}, "[3]": {"system": "IL-5", "experiment": "IL-5 production by PHA-activated PBMC, ELISA (Example 1)", "format": "cell-based, human", "settings": "for production of IL-5 inhibited, on average: average of five donors, PBMC; for IL-5 content as a percentage of the control: PHA-activated PBMC, 72 h", "protocol": "Peripheral mononuclear blood cells (PMBC) from five healthy human donors are isolated in the conventional manner from 50 ml of their blood and then purified by density gradient centrifugation (Lymphoprep). The cells (5.10^6 cells/ml) are activated by 0.3 μg/ml of phytohaemagglutinin (PHA) and cultured for 72 hours at 37° C. in the presence of various concentrations of ADA (20, 10, 5, 1, 0.2 and 0.04 μg/ml). The culture medium consists of RPMI 1640 complemented with 10% foetal calf serum and glutamine and contains mercaptoethanol. The ADA solutions are prepared in dimethyl sulfoxide (DMSO), the working concentration of DMSO during the experiments being 0.1%. Said experiments are performed on 96 well plates (200 μl/well) and, once the plates have been centrifuged at 1500 revolutions per minute for 10 minutes, the supernatants are harvested and the IL-5 content thereof analysed by an ELISA immunoenzymatic assay."}, "[4]": {"system": "IL-2", "experiment": "IL-2 production by purified CD4 T lymphocytes stimulated by PMA + anti-CD28 (Example 4)", "format": "cell-based, human", "settings": "for IL-2 in % relative to control: purified CD4 T lymphocytes, PMA + anti-CD28, mean of 2 donors", "protocol": "Purified CD4 T lymphocytes (90% purity) stimulated by PMA (phorbol myristate acetate)+anti-CD28 antibodies from healthy donors are treated with various concentrations of ADA.\nIn Examples 3 and 4, the results are stated as a percentage taking the medium without ADA as 100%. The concentrations corresponding to 100% are respectively 90,000 pg/ml for IL-2, 1100 pg/ml for IL-5, 1900 pg/ml for IFN-γ and 2870 pg/ml for TNF-α. The results are the mean of independent ELISA assays."}}, "data": [{"compound": "NC(=O)N=NC(N)=O", "note": "[ADA, azodicarbon-amide]", "values": [{"measurement": "release of IL-2 into serum", "setting": "[1]", "value": "significant reduction"}, {"measurement": "rejection of the skin allograft", "setting": "[2]", "value": "significantly delayed"}, {"measurement": "production of IL-5 inhibited, on average", "setting": "[3]; 0.2 μg/ml of ADA", "value": 45, "unit": "%"}, {"measurement": "production of IL-5 inhibited, on average", "setting": "[3]; 10 μg/ml of ADA", "value": 80, "unit": "%"}, {"measurement": "production of IL-5 inhibited, on average", "setting": "[3]; 20 μg/ml of ADA", "value": 90, "unit": "%"}, {"measurement": "IL-5 content as a percentage of the control", "setting": "[3]; ADA 0.04 μg/ml, Donor 1", "value": "83 % of control"}, {"measurement": "IL-5 content as a percentage of the control", "setting": "[3]; ADA 0.04 μg/ml, Donor 2", "value": "50 % of control"}, {"measurement": "IL-5 content as a percentage of the control", "setting": "[3]; ADA 0.04 μg/ml, Donor 3", "value": "58 % of control"}, {"measurement": "IL-5 content as a percentage of the control", "setting": "[3]; ADA 0.04 μg/ml, Donor 4", "value": "46 % of control"}, {"measurement": "IL-5 content as a percentage of the control", "setting": "[3]; ADA 0.04 μg/ml, Donor 5", "value": "55 % of control"}, {"measurement": "IL-5 content as a percentage of the control", "setting": "[3]; ADA 0.04 μg/ml, Mean of donors", "value": "58 % of control"}, {"measurement": "IL-5 content as a percentage of the control", "setting": "[3]; ADA 0.2 μg/ml, Donor 1", "value": "54 % of control"}, {"measurement": "IL-5 content as a percentage of the control", "setting": "[3]; ADA 0.2 μg/ml, Donor 2", "value": "42 % of control"}, {"measurement": "IL-5 content as a percentage of the control", "setting": "[3]; ADA 0.2 μg/ml, Donor 3", "value": "63 % of control"}, {"measurement": "IL-5 content as a percentage of the control", "setting": "[3]; ADA 0.2 μg/ml, Donor 4", "value": "57 % of control"}, {"measurement": "IL-5 content as a percentage of the control", "setting": "[3]; ADA 0.2 μg/ml, Donor 5", "value": "58 % of control"}, {"measurement": "IL-5 content as a percentage of the control", "setting": "[3]; ADA 0.2 μg/ml, Mean of donors", "value": "55 % of control"}, {"measurement": "IL-5 content as a percentage of the control", "setting": "[3]; ADA 1 μg/ml, Donor 1", "value": "48 % of control"}, {"measurement": "IL-5 content as a percentage of the control", "setting": "[3]; ADA 1 μg/ml, Donor 2", "value": "29 % of control"}, {"measurement": "IL-5 content as a percentage of the control", "setting": "[3]; ADA 1 μg/ml, Donor 3", "value": "57 % of control"}, {"measurement": "IL-5 content as a percentage of the control", "setting": "[3]; ADA 1 μg/ml, Donor 4", "value": "37 % of control"}, {"measurement": "IL-5 content as a percentage of the control", "setting": "[3]; ADA 1 μg/ml, Donor 5", "value": "49 % of control"}, {"measurement": "IL-5 content as a percentage of the control", "setting": "[3]; ADA 1 μg/ml, Mean of donors", "value": "44 % of control"}, {"measurement": "IL-5 content as a percentage of the control", "setting": "[3]; ADA 5 μg/ml, Donor 1", "value": "44 % of control"}, {"measurement": "IL-5 content as a percentage of the control", "setting": "[3]; ADA 5 μg/ml, Donor 2", "value": "2 % of control"}, {"measurement": "IL-5 content as a percentage of the control", "setting": "[3]; ADA 5 μg/ml, Donor 3", "value": "23 % of control"}, {"measurement": "IL-5 content as a percentage of the control", "setting": "[3]; ADA 5 μg/ml, Donor 4", "value": "31 % of control"}, {"measurement": "IL-5 content as a percentage of the control", "setting": "[3]; ADA 5 μg/ml, Donor 5", "value": "34 % of control"}, {"measurement": "IL-5 content as a percentage of the control", "setting": "[3]; ADA 5 μg/ml, Mean of donors", "value": "27 % of control"}, {"measurement": "IL-5 content as a percentage of the control", "setting": "[3]; ADA 10 μg/ml, Donor 1", "value": "29 % of control"}, {"measurement": "IL-5 content as a percentage of the control", "setting": "[3]; ADA 10 μg/ml, Donor 2", "value": "2 % of control"}, {"measurement": "IL-5 content as a percentage of the control", "setting": "[3]; ADA 10 μg/ml, Donor 3", "value": "28 % of control"}, {"measurement": "IL-5 content as a percentage of the control", "setting": "[3]; ADA 10 μg/ml, Donor 4", "value": "14 % of control"}, {"measurement": "IL-5 content as a percentage of the control", "setting": "[3]; ADA 10 μg/ml, Donor 5", "value": "31 % of control"}, {"measurement": "IL-5 content as a percentage of the control", "setting": "[3]; ADA 10 μg/ml, Mean of donors", "value": "21 % of control"}, {"measurement": "IL-5 content as a percentage of the control", "setting": "[3]; ADA 20 μg/ml, Donor 1", "value": "9 % of control"}, {"measurement": "IL-5 content as a percentage of the control", "setting": "[3]; ADA 20 μg/ml, Donor 2", "value": "2 % of control"}, {"measurement": "IL-5 content as a percentage of the control", "setting": "[3]; ADA 20 μg/ml, Donor 3", "value": "26 % of control"}, {"measurement": "IL-5 content as a percentage of the control", "setting": "[3]; ADA 20 μg/ml, Donor 4", "value": "5 % of control"}, {"measurement": "IL-5 content as a percentage of the control", "setting": "[3]; ADA 20 μg/ml, Donor 5", "value": "7 % of control"}, {"measurement": "IL-5 content as a percentage of the control", "setting": "[3]; ADA 20 μg/ml, Mean of donors", "value": "10 % of control"}, {"measurement": "IL-5 production, comparable tests in the absence of mercaptoethanol", "setting": "[3]; culture medium without mercaptoethanol, compared with Table 1", "value": "relatively similar results"}, {"measurement": "IL-2 in % relative to control", "setting": "[4]; ADA 1 μg/ml", "value": "82 % relative to control"}, {"measurement": "IL-2 in % relative to control", "setting": "[4]; ADA 5 μg/ml", "value": "30 % relative to control"}, {"measurement": "IL-2 in % relative to control", "setting": "[4]; ADA 10 μg/ml", "value": "18 % relative to control"}, {"measurement": "IL-2 in % relative to control", "setting": "[4]; ADA 20 μg/ml", "value": "10 % relative to control"}, {"measurement": "secretion of IL-2 by lymphocytes", "setting": "[4]; concentrations lower than 20 μg/ml of ADA, Examples 3 and 4", "value": "Even lower concentrations inhibit"}]}]}
